Reference: patent publication US5952307A, “Basic α-aminoalkylphosphonate derivatives” (priority 1997, dated 1999)
Read-outs that look alike come from different tables or passages of the source.

Assays:
Assay type in all cases: biochemical
human thrombin = biological target: T1, human thrombin (Homo sapiens, UniProt P00734); settings: 25° C., NI = no inhibition
T1 construct: bovine trypsin, human thrombin
Experimental: (§1) Inactivation rates of serine proteases by aryl diesters of peptidyl derivatives of α-aminoalkylphosphonates were measured by the incubation method. An aliquot of inhibitor (25 or 50 μl) in Me2 SO was added to a buffered enzyme solution (0.01-2.3 μM) to initiate the inactivation. Aliquots (50 μl) were withdrawn at various intervals and the residual enzymatic activity was measured. Me2 SO concentration in the reaction mixture was 8-12% (v/v). A 0.1 M HEPES, 0.01 M CaCl2, pH 7.5 buffer was utilized for trypsin and trypsin-like enzymes. A 0.1 M HEPES, 0.5 M NaCl, pH 7.5, was utilized for the other serine proteases. Peptide thioesters or peptide nitroanilides with the appropriate sequences were used as substrates for various serine proteases. All peptide thioesters hydrolysis rates were measured with the assay mixture containing 4,4'-dithiodipyridine {ε324 =19800 M^-1 cm^-1; Grasetti & Murray, Arch. Biochem. Biophys. 1967, 119, 41-48}. Peptide 4-nitroanilide hydrolysis was measured at 410 nm {ε410 =8800 M^-1 cm^-1; Erlanger et al., Arch. Biochem. Biophys. 1961, 95, 271-278}.
(§2) ^a Enzyme was incubated with the inhibitor in 250 μL of the proper
(§3) buffer at 25° C. Specifically, the inhibition reation mixtures wer
(§4) Hepes, pH 7.5 buffer containing 1 mM CaCl2 and 8% DMSO; 0.07 μM
thrombin, 0.25-42 μM inhibitor in an 80 mM Hepes, pH 7.5 buffer
(§5) containing 428 mM NaCl and 8% DMSO; 0.07 μM tryptase, 20-66 μM
(§6) DMSO. Aliquots of 25 μL were withdrawn at various intervals and the
(§7) residual enzymatic activity was measured as described in experimental
(§8) section. The kobs values were calculated from pseudofirst-order
(§9) ^a Enzyme (0.06-0.5 μM) was incubated with the inhibitor (0.25-42
(§10) μM) in 250 μL of the proper buffer containing 9% DMSO at 25°
(§11) C. The final inhibition reaction mixtures are given in the footnote to
(§12) Table 1. Aliquots of 25 μL were withdrawn at various intervals and the […]

mast cell tryptase = mast cell tryptase (Homo sapiens, UniProt Q15661); assay: Inactivation rate of mast cell tryptase, incubation method; settings: for kobs /[I] mast cell tryptase: 25° C., NI = no inhibition; for kobsd /[I] mast cell tryptase: Table I, 0.1M Hepes, 10% glycerol, 10 mM heparin, pH 7.5, 25° C., 7.1% DMSO, NI = no inhibition after 25 min of incubation
Experimental: as §1, with “271-278}. First order inactivation rate constants (Kobs) were obtained from plots of In vt /vo vs time, and the correlation coefficients were greater then 0.98.” for “271-278}.”
(§13) ^a Inhibition constants were measured in 0.1M Hepes, 0.01M CaCl2
(§14) pH 7.5 for trypsin, granzymes A, and K, and in 0.1M Hepes, 10% glycerol,
(§15) 10 mM heparin, pH 7.5 for mast cell tryptase, and at 25° C. The
(§16) reaction mixtures contained 2% DMSO for trypsin, 7.6% for granzyme A, and
(§17) 7.1% for granzyme K and tryptase. The substrate was Z--Arg--SBzl for
(§18) granzymes and trypsin, and Z--Arg--SBzl or Z--Lys--SBzl for tryptase in
(§19) the presence of DTNB. The inhibitor # concentration ranged from 0.001 to
(§20) ^b NI, no inhibition after 25 min of incubation with enzyme.
as §2, §5
inhibitor # in an mM Hepes, pH 7.5 buffer containing 8 mM heparin, 166 m
NaCl, 0.8 mM Mes, 9% glycerol and 8% DMSO; 0.42 μM factor Xa, 66 μM
as §6, §7, §8, §9, §10, §11, §12

bovine trypsin [1] = biological target: T2, bovine trypsin (Bos taurus, UniProt P00760); assay: Inactivation rate of bovine trypsin, incubation method; settings: Table III; enzyme 0.06-0.5 μM, inhibitor 0.25-42 μM, 9% DMSO, 25° C.; NI = no inhibition
T2 sequence (P00760 24-246): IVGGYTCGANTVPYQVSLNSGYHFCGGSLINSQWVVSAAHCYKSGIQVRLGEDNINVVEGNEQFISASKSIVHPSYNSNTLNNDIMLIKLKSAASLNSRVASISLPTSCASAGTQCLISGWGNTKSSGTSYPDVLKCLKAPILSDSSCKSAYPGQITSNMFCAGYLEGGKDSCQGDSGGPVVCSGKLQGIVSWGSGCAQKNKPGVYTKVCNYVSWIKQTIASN

rat granzyme K = biological target: T3, rat granzyme K (Rattus norvegicus, UniProt P49864); assay: Inactivation rate of rat granzyme K, incubation method; settings: Table I; 0.1M Hepes, 0.01M CaCl2 pH 7.5, 25° C., 7.1% DMSO, substrate Z--Arg--SBzl; NI = no inhibition after 25 min of incubation
T3 sequence (P49864 26-258): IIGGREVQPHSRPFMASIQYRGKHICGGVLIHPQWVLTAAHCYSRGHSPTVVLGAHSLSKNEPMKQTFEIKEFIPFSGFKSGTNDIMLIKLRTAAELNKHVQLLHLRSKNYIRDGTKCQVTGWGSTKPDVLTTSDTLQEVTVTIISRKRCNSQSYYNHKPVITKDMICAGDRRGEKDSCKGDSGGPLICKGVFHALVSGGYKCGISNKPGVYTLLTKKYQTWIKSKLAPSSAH
Experimental: as §1, with “271-278}. First order inactivation rate constants (Kobs) were obtained from plots of In vt /vo vs time, and the correlation coefficients were greater then 0.98.” for “271-278}.”
as §13, §14, §15, §16, §17, §18, §19, §20

human granzyme A = biological target: T4, human granzyme A (Homo sapiens, UniProt P12544); assay: Inactivation rate of human granzyme A, incubation method; settings: Table I; 0.1M Hepes, 0.01M CaCl2 pH 7.5, 25° C., 7.6% DMSO, substrate Z--Arg--SBzl
T4 sequence (P12544 29-262): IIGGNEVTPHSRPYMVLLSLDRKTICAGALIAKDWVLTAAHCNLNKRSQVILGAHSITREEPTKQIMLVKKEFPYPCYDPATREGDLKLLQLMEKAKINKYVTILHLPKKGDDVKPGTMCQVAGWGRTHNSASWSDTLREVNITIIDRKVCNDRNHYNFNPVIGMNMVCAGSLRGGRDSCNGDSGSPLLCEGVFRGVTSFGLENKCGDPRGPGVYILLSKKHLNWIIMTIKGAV
Experimental: as §1, with “271-278}. First order inactivation rate constants (Kobs) were obtained from plots of In vt /vo vs time, and the correlation coefficients were greater then 0.98.” for “271-278}.”
as §13, §14, §15, §16, §17, §18, §19, §20

bovine trypsin [2] = biological target: T2, bovine trypsin; assay: Inactivation rate of bovine trypsin, incubation method; settings: for kobsd /[I] bovine trypsin: Table I, 0.1M Hepes, 0.01M CaCl2 pH 7.5, 25° C., 2% DMSO, substrate Z--Arg--SBzl, NI = no inhibition after 25 min; for kobs /[I] bovine trypsin: Table II, 0.13 μM trypsin, 0.25-42 μM inhibitor, 80 mM Hepes pH 7.5, 1 mM CaCl2, 8% DMSO, 25° C., NI = no inhibition
Experimental: as §1, with “271-278}. First order inactivation rate constants (Kobs) were obtained from plots of In vt /vo vs time, and the correlation coefficients were greater then 0.98.” for “271-278}.”
as §13, §14, §15, §16, §17, §18, §19, §20, §2, §3
composed of: 0.13 μM trypsin, 0.25-42 μM inhibitor in an 80 mM
as §4, §6, §7, §8, §9, §10, §11, §12

rat granzyme A = assay: Inactivation rate of rat granzyme A, incubation method; settings: Table I; 0.1M Hepes, 0.01M CaCl2 pH 7.5, 25° C., 7.6% DMSO, substrate Z--Arg--SBzl
Experimental: as §1, with “271-278}. First order inactivation rate constants (Kobs) were obtained from plots of In vt /vo vs time, and the correlation coefficients were greater then 0.98.” for “271-278}.”
as §13, §14, §15, §16, §17, §18, §19, §20

[3] = Table III, enzyme 0.06-0.5 μM, inhibitor 0.25-42 μM, 9% DMSO
[4] = Table II, 0.07 μM thrombin, 0.25-42 μM inhibitor, 80 mM Hepes pH 7.5, 428 mM NaCl, 8% DMSO
[5] = Table II, 0.07 μM tryptase, 20-66 μM inhibitor, Hepes pH 7.5, heparin, 9% glycerol, 8% DMSO

Sequence of mast cell tryptase (Q15661 31-275): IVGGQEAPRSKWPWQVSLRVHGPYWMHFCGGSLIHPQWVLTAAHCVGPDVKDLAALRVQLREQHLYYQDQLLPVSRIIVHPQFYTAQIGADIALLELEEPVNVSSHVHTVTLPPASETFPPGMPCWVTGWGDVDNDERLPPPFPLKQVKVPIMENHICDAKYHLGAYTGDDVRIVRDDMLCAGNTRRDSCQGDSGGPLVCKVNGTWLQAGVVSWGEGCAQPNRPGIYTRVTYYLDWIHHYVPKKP

| SMILES | kobs /[I] human thrombin (human thrombin; [3]) | kobs /[I] mast cell tryptase (mast cell tryptase; [3]) | kobs /[I] bovine trypsin (bovine trypsin [1]) | kobs /[I] human thrombin (human thrombin; [4]) | kobsd /[I] rat granzyme K (rat granzyme K) | kobsd /[I] human granzyme A (human granzyme A) | kobsd /[I] mast cell tryptase (mast cell tryptase) | kobs /[I] mast cell tryptase (mast cell tryptase; [5]) | kobsd /[I] bovine trypsin (bovine trypsin [2]) | kobs /[I] bovine trypsin (bovine trypsin [2]) | kobsd /[I] rat granzyme A (rat granzyme A) |
| --- | --- | --- | --- | --- | --- | --- | --- | --- | --- | --- | --- |
| CC(C)C(NC(=O)CCC(=O)O)C(=O)N1CCCC1C(=O)NC(CCCCN)P(=O)(Oc1ccccc1)Oc1ccccc1 (mixture of isomers) [Suc--Val--Pro--Lys^P (OPh)2] | 3.4 ± 0.4 M⁻¹ s⁻¹ | 0.6 M⁻¹ s⁻¹ | 416 ± 28 M⁻¹ s⁻¹ | – | – | – | – | – | – | – | – |
| N=C(N)c1ccc(C(NC(=O)C2CCCN2C(=O)CCc2ccccc2)P(=O)(Oc2ccccc2)Oc2ccccc2)cc1 (centres unmarked) [3-Phenylpropanoyl-Pro-(4-AmPhGly)^P (OPh)2] | – | – | – | 6,070 ± 68 M^-1 s^-1 | 50 ± 2 M⁻¹ s⁻¹ | 1510 ± 217 M⁻¹ s⁻¹ | 0.4 M⁻¹ s⁻¹ | 0.4 M⁻¹ s⁻¹ | 1520 ± 27 M⁻¹ s⁻¹ | 1,520 ± 27 M^-1 s^-1 | – |
| Cl.N=C(N)c1ccc(C(NC(=O)[C@@H]2CCCN2C(=O)c2ccccc2Oc2ccccc2)P(=O)(Oc2ccccc2)Oc2ccccc2)cc1 (some centres unmarked) [Diphenyl N-(N-(2-Phenoxybenzoylprolyl))amino(4-amidinophenyl)methanephosphonate Hydrochloride] | – | – | – | 42,400 ± 4190 M^-1 s^-1 | 60 ± 5 M⁻¹ s⁻¹ | 610 ± 88 M⁻¹ s⁻¹ | 0.9 M⁻¹ s⁻¹ | 0.9 M⁻¹ s⁻¹ | 7760 ± 310 M⁻¹ s⁻¹ | 7,760 ± 310 M^-1 s^-1 | – |
| N=C(N)c1ccc(C(NC(=O)C2CCCN2C(=O)CNS(=O)(=O)Cc2ccccc2)P(=O)(Oc2ccccc2)Oc2ccccc2)cc1 (mixture of isomers) [PhCH2 SO2 --Gly--Pro-(4-AmPhGly)^P (OPh)2] | – | – | – | 17,200 ± 128 M^-1 s^-1 | 87 M⁻¹ s⁻¹ | 3650 ± 180 M⁻¹ s⁻¹ | 2 M⁻¹ s⁻¹ | 2.0 ± 0.1 M⁻¹ s⁻¹ | 37060 ± 986 M⁻¹ s⁻¹ | 37,060 ± 986 M^-1 s^-1 | – |
| N=C(N)c1ccc(C(NC(=O)CCC(=O)O)P(=O)(Oc2ccccc2)Oc2ccccc2)cc1 (centres unmarked) [Suc-(4-AmPhGly)^P (OPh)2] | – | – | – | 2 M⁻¹ s⁻¹ | 0.3 ± 0.07 M⁻¹ s⁻¹ | 857 M⁻¹ s⁻¹ | 0.2 M⁻¹ s⁻¹ | 0.2 M⁻¹ s⁻¹ | 45 ± 3 M⁻¹ s⁻¹ | 45 ± 3 M⁻¹ s⁻¹ | – |
| CC(C)C(NC(=O)CCC(=O)O)C(=O)N1CCCC1C(=O)NC(CCCCCN)P(=O)(Oc1ccccc1)Oc1ccccc1 (mixture of isomers) [Suc--Val--Pro-HomoLys^P (OPh)2] | 1.6 ± 0.3 M⁻¹ s⁻¹ | 4.1 ± 0.4 M⁻¹ s⁻¹ | 51 ± 10 M⁻¹ s⁻¹ | – | – | – | – | – | – | – | – |
| N=C(N)c1ccc(C(NS(=O)(=O)c2cccc3ccccc23)P(=O)(Oc2ccccc2)Oc2ccccc2)cc1 (racemic) [1-NpSO2-(4-AmPhGly)^P (OPh)2] | – | – | – | 24 ± 3 M⁻¹ s⁻¹ | – | 330 ± 26 M⁻¹ s⁻¹ | 10 M⁻¹ s⁻¹ | 10 ± 1 M⁻¹ s⁻¹ | 170 ± 34 M⁻¹ s⁻¹ | 170 ± 34 M⁻¹ s⁻¹ | 30 ± 1 M⁻¹ s⁻¹ |
| CC(NC(=O)C(Cc1ccccc1)NC(=O)OCc1ccccc1)C(=O)NC(c1ccc(C(=N)N)cc1)P(=O)(Oc1ccccc1)Oc1ccccc1 (mixture of isomers) [Cbz--Phe--Ala-(4-AmPhGly)^P (OPh)2] | – | – | – | 1,150 ± 88 M^-1 s^-1 | 4.2 ± 0.3 M⁻¹ s⁻¹ | 1770 ± 13 M⁻¹ s⁻¹ | 4 M⁻¹ s⁻¹ | 4.0 ± 0.3 M⁻¹ s⁻¹ | 3010 ± 318 M⁻¹ s⁻¹ | 3,010 ± 318 M^-1 s^-1 | – |
| CC(C)(C)OC(=O)NC(CC(N)=O)C(=O)NC(CCCCN)P(=O)(Oc1ccccc1)Oc1ccccc1 (mixture of isomers) [Boc--Asn--Lys^P (OPh)2] | – | – | 3 M⁻¹ s⁻¹ | – | – | – | – | – | – | – | – |
| C[C@H](NC(=O)CCC(=O)O)C(=O)N[C@@H](C)C(=O)NC(c1ccc(C(=N)N)cc1)P(=O)(Oc1ccccc1)Oc1ccccc1 (some centres unmarked) [Suc--Ala--Ala-(4-AmPhGly)^P (OPh)2] | – | – | – | 2 M⁻¹ s⁻¹ | 0.3 ± 0.01 M⁻¹ s⁻¹ | 260 ± 15 M⁻¹ s⁻¹ | 0.7 M⁻¹ s⁻¹ | 0.7 M⁻¹ s⁻¹ | 640 ± 36 M⁻¹ s⁻¹ | 640 ± 36 M⁻¹ s⁻¹ | – |
